The values that follow come from patent US4962125A, “Novel substance KS-619-1, preparation process and pharmaceutical composition” (Kyowa Hakko Kogyo, Co., Ltd., priority 1984, dated 1990).

Broadly, the inhibition is the relative decrease from the control value, in per cent. As usually defined, the LD50 is the dose at which mortality reaches 50%. Read a low LD50 as greater toxicity.

In data set [1] the test system is rabbit mesenteric arteries. Nature of the data set: Inhibition of KCl-induced contraction of surface-perfused, extirpated mesenteric arteries. The format is cell-based, White bastard rabbits. The method, then:
(1) Preparation of surface-perfused, extirpated mesenteric arteries
White bastard rabbits (male, 2-3 kg) were incised along the abdominal median line. […] The strips were ligated with silk yarn at both ends, and the lower end was connected to a stationary rod, whereas the upper end was connected to a […] transducer (SB-1T, product of Nippon Koden Co., Ltd.). Thus, the strips were suspended under an initial tension of 1.5 g. The preparation was kept at 37°±1° C. by means of peristaltic pump (Harvard 1210), while a gas (95% O2 and 5% CO2) was introduced therein. The surface of the preparation was perfused with a Krebs-Henseleit solution whose composition in g/l was NaCl: 6.92, KCl: 0.35, MgSO4.7H2 O: 0.29, CaCl2 : 0.28, KH2 PO4 : 0.16, NaHCO3 : 2.1 and glucose: 2.0 at a flow rate of 10 ml/min. After the preparation was stabilized for 1 to 2 hours, it was used for the experiment. Potassium chloride as a blood vessel-contracting substance was injected into flow of the perfusion solution through a cannula provided just before the preparation so that potassium chloride can have the ultimate concentration of 20 mM. The resulting contraction reaction was recorded on a polygraph (RM-45, product of Nippon Koden Co. Ltd.) in equal scales through the tension transducer. KS-619-1 was dissolved in ethanol to a concentration of 20 mg/ml, and the solution was properly diluted with a nutrient liquor and then continuously perfused from 10 minutes before the application of the contracting substance till the end of contraction reaction.
^(a) Inhibition percentage of contraction was calculated according to […]

Data set [2] in a line: Acute toxicity (LD50) in mice. The settings on record: mouse, in vivo. How it is done: The acute toxicity (LD50) of KS-619-1 in mice is more than 300 mg/kg·p.o. and more than 100 mg/kg·i.p.
A short description of another data set: Solubility. Type of data set: physicochemical.

Consider `CC(=O)Cc1cc2c(c(O)c1C(=O)O)-c1cc3c(c(O)c1CC2)C(=O)c1c(O)cc(O)cc1C3=O` [KS-619-1], for which, in data set [1] (Oryctolagus cuniculus, KS-619-1 0.3 μg/ml (ultimate concentration), contracting substance potassium chloride 20 mM, read-out: Inhibition percentage of contraction), the inhibition at 0.3 µg/mL is 33%. Also, the inhibition at 1 µg/mL in data set [1] (Oryctolagus cuniculus, KS-619-1 1.0 μg/ml (ultimate concentration), contracting substance potassium chloride 20 mM, read-out: Inhibition percentage of contraction) is 67%. The “inhibition of contraction of rabbit mesenteric arteries (in words)” value in data set [1] (potassium chloride 20 mM, 0.3 and 1.0 μg/ml) is given as “inhibited the contraction of rabbit mesenteric arteries, depending on the concentration”. The values for the LD50 in data set [2] (ip) and in data set [2] (po) were more than 100 mg/kg and more than 300 mg/kg, respectively. The Solubility entry is reported as “readily soluble” in “Solubility” (in acetic acid); “sparingly soluble” in “Solubility” (in chloroform and water); “soluble” in the data set “Solubility” (in methanol, ethanol, acetone, ethyl acetate and butanol).
